Measurements reported in patent publication US11344546B2, “Benzamide compounds” (Recurium IP Holdings, LLC, priority 2018, dated 2022).

test system: RS4;11 cells; assay: RS4;11 cell proliferation assay (CellTiter-Glo); type: cell-based; conditions: Homo sapiens, 48 h compound treatment, read-out: RS4;11 (nM) CTG IC50
Procedure: Cell proliferation was measured using the CellTiter-Glo@ Luminescent Cell Viability Assay. The assay involved the addition of a single reagent (CellTiter-Glo® Reagent) directly to cells cultured in serum-supplemented medium. RS4;11 (ATC, CRL-1873) cells were cultured according to ATCC recommendations and were seeded at 50,000 cells per well. NCI-H1963 cells (ATCC CRL-5982) were cultured according to ATCC recommendations and seeded at 12,000 cells per well.
Each compound evaluated was prepared as a DMSO stock solution (10 mM). Compounds were tested in duplicate on each plate, with a 10-point serial dilution curve (1:3 dilution). Compound treatment (1.0 μL) was added from the compound dilution plate to the cell plate. The highest compound concentration was 10 μM (final), with a 0.1% final DMSO concentration. Plates were then incubated at 37° C., 5% CO2. After 48 h of compound treatment for RS4;11 or 72 h for NCI-H1963, cell plates were equilibrated at rt for approximately 30 mins. An equi-volume amount of CellTiter-Glo@ Reagent (40 μL) was added to each well. Plates were mixed for 2 mins on an orbital shaker to induce cell lysis and then incubated at RT for 10 mins to stabilize the luminescent signal. Luminescence was recorded using a Envision plate reader according to CellTiter-Glo protocol. IC50 of each compound was calculated using GraphPad Prism by nonlinear regression analysis.

SMILES | IC50 [nM]
CC1(C)CCC(CN2CCN(c3ccc(C(=O)NS(=O)(=O)c4ccc(NCCN5CCC6(CCOC6)CC5)c([N+](=O)[O-])c4)c(Oc4cnc5[nH]ccc5c4)c3)CC2)=C(C23CC(Cl)(C2)C3)C1 [Example 3, 2-((1H-pyrrolo[2,3-b]pyridin-5-yl)oxy)-N-((4-((2-(2-oxa-8-azaspiro[4.5]decan-8-yl)ethyl)amino)-3-nitrophenyl)sulfonyl)-4-(4-((2-(3-chlorobicyclo[1.1.1]pentan-1-yl)-4,4-dimethylcyclohex-1-en-1-yl)methyl)piperazin-1-yl)benzamide] | 100 to 1000
CC1(C)CCC(CN2CCN(c3ccc(C(=O)NS(=O)(=O)c4ccc(OCC5CC6(COC6)C5)c([N+](=O)[O-])c4)c(Oc4cnc5[nH]ccc5c4)c3)CC2)=C(C23CC(Cl)(C2)C3)C1 [Example 8, 2-(1H-pyrrolo[2,3-b]pyridin-5-yloxy)-N-(4-(2-oxaspiro[3.3]heptan-6-ylmethoxy)-3-nitrophenylsulfonyl)-4-(4-((2-(3-chlorobicyclo[1.1.1]pentan-1-yl)-4,4-dimethylcyclohex-1-enyl)methyl)piperazin-1-yl)benzamide] | 100 to 1000
CC12CC(C3=C(CN4CCN(c5ccc(C(=O)NS(=O)(=O)c6ccc(NCC7(F)CCOCC7)c([N+](=O)[O-])c6)c(Oc6cnc7[nH]ccc7c6)c5)CC4)CCC4(CCC4)C3)(C1)C2 [Example 43, 2-((1H-pyrrolo[2,3-b]pyridin-5-yl)oxy)-N-((4-(((4-fluorotetrahydro-2H-pyran-4-yl)methyl)amino)-3-nitrophenyl)sulfonyl)-4-(4-((6-(3-methylbicyclo[1.1.1]pentan-1-yl)spiro[3.5]non-6-en-7-yl)methyl)piperazin-1-yl)benzamide] | 100 to 1000
CN(C)[C@H]1CC[C@H](Nc2ccc(S(=O)(=O)NC(=O)c3ccc(N4CCN(CC5=C(C67CC(C)(C6)C7)CC(C)(C)CC5)CC4)cc3Oc3cnc4[nH]ccc4c3)cc2[N+](=O)[O-])CC1 [Example 14, 2-((1H-pyrrolo[2,3-b]pyridin-5-yl)oxy)-4-(4-((4,4-dimethyl-2-(3-methylbicyclo[1.1.1]pentan-1-yl)cyclohex-1-en-1-yl)methyl)piperazin-1-yl)-N-((4-(((1r,4r)-4-(dimethylamino)cyclohexyl)amino)-3-nitrophenyl)sulfonyl)benzamide] | < 100
O=C(NS(=O)(=O)c1ccc(NCC2CCOCC2)c([N+](=O)[O-])c1)c1ccc(N2CCN(CC3=C(C45CC(Cl)(C4)C5)CCCC3)CC2)cc1Oc1cnc2[nH]ccc2c1 [Example 72, 2-((1H-pyrrolo[2,3-b]pyridin-5-yl)oxy)-4-(4-((2-(3-chlorobicyclo[1.1.1]pentan-1-yl)cyclohex-1-en-1-yl)methyl)piperazin-1-yl)-N-((3-nitro-4-(((tetrahydro-2H-pyran-4-yl)methyl)amino)phenyl)sulfonyl)benzamide] | > 1000
CC1(C)CCC(CN2CCN(c3ccc(C(=O)NS(=O)(=O)c4ccc(NCCN5CCOCC5)c([N+](=O)[O-])c4)c(Oc4cnc5[nH]ccc5c4)c3)CC2)=C(C23CC(C)(C2)C3)C1 [Example 21, 2-(1H-pyrrolo[2,3-b]pyridin-5-yloxy)-4-(4-((4,4-dimethyl-2-(3-methylbicyclo[1.1.1]pentan-1-yl)cyclohex-1-enyl)methyl)piperazin-1-yl)-N-(4-(2-morpholinoethylamino)-3-nitrophenylsulfonyl)benzamide] | 100 to 1000
CC1(C)CCC(CN2CCN(c3ccc(C(=O)NS(=O)(=O)c4ccc(NCC5CC6(COC6)C5)c([N+](=O)[O-])c4)c(Oc4cnc5[nH]ccc5c4)c3)CC2)=C(C23CC(Cl)(C2)C3)C1 [Example 2, 2-(1H-pyrrolo[2,3-b]pyridin-5-yl-oxy)-N-(4-(2-oxaspiro[3.3]heptan-6-yl-methylamino)-3-nitrophenylsulfonyl)-4-(4-((2-(3-chlorobicyclo[1.1.1]pentan-1-yl)-4,4-dimethylcyclohex-1en-yl)methyl)piperazin-1-yl)benzamide] | < 100
CN(CCO)CC[C@H](CSc1ccccc1)Nc1ccc(S(=O)(=O)NC(=O)c2ccc(N3CCN(CC4=C(C56CC(C(F)(F)F)(C5)C6)CC(C)(C)CC4)CC3)cc2)cc1S(=O)(=O)C(F)(F)F [Example 51, (R)-4-(4-((4,4-dimethyl-2-(3-(trifluoromethyl)bicyclo[1.1.1]pentan-1-yl)cyclohex-1-en-1-yl)methyl)piperazin-1-yl)-N-((4-((4-((2-hydroxyethyl)(methyl)amino)-1-(phenylthio)butan-2-yl)amino)-3-((trifluoromethyl)sulfonyl)phenyl)sulfonyl)benzamide] | 100 to 1000
CC1(C)CCC(CN2CCN(c3ccc(C(=O)NS(=O)(=O)c4ccc(NCC5CC6(CCOCC6)C5)c([N+](=O)[O-])c4)c(Oc4cnc5[nH]ccc5c4)c3)CC2)=C(C23CC(Cl)(C2)C3)C1 [Example 5, 2-((1H-pyrrolo[2,3-b]pyridin-5-yl)oxy)-N-((4-(((7-oxaspiro[3.5]nonan-2-yl)methyl)amino)-3-nitrophenyl)sulfonyl)-4-(4-((2-(3-chlorobicyclo[1.1.1]pentan-1-yl)-4,4-dimethylcyclohex-1-en-1-yl)methyl)piperazin-1-yl)benzamide] | 100 to 1000
CC1(C)CCC(CN2CCN(c3ccc(C(=O)NS(=O)(=O)c4ccc(OCC5CCOCC5)c([N+](=O)[O-])c4)c(Oc4cnc5[nH]ccc5c4)c3)CC2)=C(C23CC(C)(C2)C3)C1 [Example 22, 2-(1H-pyrrolo[2,3-b]pyridin-5-yloxy)-4-(4-((4,4-dimethyl-2-(3-methylbicyclo[1.1.1]pentan-1-yl)cyclohex-1-enyl)methyl)piperazin-1-yl)-N-(3-nitro-4-((tetrahydro-2H-pyran-4-yl)methoxy)phenylsulfonyl)benzamide] | < 100
CC1(C)CCC(CN2CCN(c3ccc(C(=O)NS(=O)(=O)c4ccc(NCCN5CC6(CCOCC6)C5)c([N+](=O)[O-])c4)c(Oc4cnc5[nH]ccc5c4)c3)CC2)=C(C23CC(Cl)(C2)C3)C1 [Example 4, 2-(1H-pyrrolo[2,3-b]pyridin-5-yloxy)-N-(4-(2-(7-oxa-2-azaspiro[3.5]nonan-2-yl)ethylamino)-3-nitrophenylsulfonyl)-4-(4-((2-(3-chlorobicyclo[1.1.1]pentan-1-yl)-4,4-dimethylcyclohex-1-enyl)methyl)piperazin-1-yl)benzamide] | 100 to 1000
CC1(C)CCC(CN2CCN(c3ccc(C(=O)NS(=O)(=O)c4ccc(OC5COC6(CC6)C5)c([N+](=O)[O-])c4)c(Oc4cnc5[nH]ccc5c4)c3)CC2)=C(C23CC(Cl)(C2)C3)C1 (stereo not shown) [Example 6, 2-((1H-pyrrolo[2,3-b]pyridin-5-yl)oxy)-N-((4-((4-oxaspiro[2.4]heptan-6-yl)oxy)-3-nitrophenyl)sulfonyl)-4-(4-((2-(3-chlorobicyclo[1.1.1]pentan-1-yl)-4,4-dimethylcyclohex-1-en-1-yl)methyl)piperazin-1-yl)benzamide] | > 1000
CCC12CC(C3=C(CN4CCN(c5ccc(C(=O)NS(=O)(=O)c6ccc(N[C@H](CCN7CCOCC7)CSc7ccccc7)c(S(=O)(=O)C(F)(F)F)c6)cc5)CC4)CCC(C)(C)C3)(C1)C2 [Example 53, (R)-4-(4-((2-(3-Ethylbicyclo[1.1.1]pentan-1-yl)-4,4-dimethylcyclohex-1-en-1-yl)methyl)piperazin-1-yl)-N-((4-((4-morpholino-1-(phenylthio)butan-2-yl)amino)-3-((trifluoromethyl)sulfonyl)phenyl)sulfonyl)benzamide] | > 1000
CN1CCC(F)(CNc2ccc(S(=O)(=O)NC(=O)c3ccc(N4CCN(CC5=C(C67CC(C(F)(F)F)(C6)C7)CC(C)(C)CC5)CC4)cc3Oc3cnc4[nH]ccc4c3)cc2[N+](=O)[O-])CC1 [Example 29, 2-((1H-pyrrolo[2,3-b]pyridin-5-yl)oxy)-4-(4-((4,4-dimethyl-2-(3-(trifluoromethyl)bicyclo[1.1.1]pentan-1-yl)cyclohex-1-en-1-yl)methyl)piperazin-1-yl)-N-((4-(((4-fluoro-1-methylpiperidin-4-yl)methyl)amino)-3-nitrophenyl)sulfonyl)benzamide] | < 100
O=C(NS(=O)(=O)c1ccc(NCC2CCOCC2)c([N+](=O)[O-])c1)c1ccc(N2CCN(CC3=C(C45CC(C(F)F)(C4)C5)CC4(CCC4)CC3)CC2)cc1Oc1cnc2[nH]ccc2c1 [Example 42, 2-((1H-pyrrolo[2,3-b]pyridin-5-yl)oxy)-4-(4-((6-(3-(difluoromethyl)bicyclo[1.1.1]pentan-1-yl)spiro[3.5]non-6-en-7-yl)methyl)piperazin-1-yl)-N-((3-nitro-4-(((tetrahydro-2H-pyran-4-yl)methyl)amino)phenyl)sulfonyl)benzamide] | < 100
CN1CCC(CNc2ccc(S(=O)(=O)NC(=O)c3ccc(N4CCN(CC5=C(C67CC(C)(C6)C7)CC(C)(C)CC5)CC4)cc3Oc3cnc4[nH]ccc4c3)cc2[N+](=O)[O-])CC1 [Example 12, 2-((1H-pyrrolo[2,3-b]pyridin-5-yl)oxy)-4-(4-((4,4-dimethyl-2-(3-methylbicyclo[1.1.1]pentan-1-yl)cyclohex-1-en-1-yl)methyl)piperazin-1-yl)-N-((4-(((1-methylpiperidin-4-yl)methyl)amino)-3-nitrophenyl)sulfonyl)benzamide] | < 100
